Test results: patent publication US20070141341A1, “Coating containing denatured aloe vera, for covering either chlorine-generating compositions or other hazardous chemicals and method for making” (priority 2005, published 2007)

Test system: E. coli
Experiment: Reductions of E. coli organisms

O=c1n(Cl)c(=O)n(Cl)c(=O)n1Cl [Uncoated ACL, trichloroisocyanuric acid]
E. coli remaining after 5 minutes (after 5 minutes): 0
E. coli remaining after: ½ hour (after ½ hour): Slightly
